Columns and labels:
Format in all cases: cell-based
[1] = system: recombinant retrovirus of murine origin (MoMLV); experiment: Residual virus (clones of βgal+ cells) after infection of mouse 3T3 test cells with LacZ recombinant MoMLV retrovirus; conditions: 3T3 cells; for residual virus (% not inhibited) at 100 µM / residual virus (% not inhibited) at 10 µM / residual virus (% not inhibited) at 1 µM / residual virus (% not inhibited) at 0.1 µM: NIH3T3, 48 hours after infection, mean of several experiments, read-out: % of the residual virus (not inhibited by the product); for residual virus (% not inhibited) at 100 µM: 10^-4 M; for residual virus (% not inhibited) at 10 µM: 10^-5 M; for residual virus (% not inhibited) at 1 µM: 10^-6 M; for residual virus (% not inhibited) at 0.1 µM: 10^-7 M
Description: The virus used is a recombinant retrovirus of murine origin (MoMLV) in which a reporter gene (LacZ) has been introduced.
Fixed amounts of LacZ recombinant retroviruses are placed in the presence of mouse infectable test cells (3T3) with or without the product to be tested. To each recombinant retrovirus corresponds a clone of β gal^+ cells. The number of clones of βgal^+ cells is read 48 hours after the infection. The % of the residual virus (not inhibited by the product) is indicated in the following table (mean of several independent experiments): […]

HIV-1 virus [2] = experiment: Replication of HIV-1 in macrophages of sero-negative donors, continuous culture (reverse transcriptase activity)
Description: (§1) The drugs 6651, AZT, 6714 and ddT were diluted in DMSO.
(§2) The virus HIV-1 utilized is derived from a culture supernatant of CEM-LAV 1 cells; these latter are maintained by the addition at each passage (every 3 or 4 days) of uninfected CEM cells. The titre of the virus in the clarified culture supernatant is higher than 10^6 cpm/ml in reverse transcriptase activity and 10^3 infectious units/ml on lymphocytes of sero-negative donors.
(§3) The macrophages were obtained from a deleucocytation pocket. The mononucleated cells were separated on a Ficoll^R gradient. The cells were adjusted to 50.10^6 cells/ml in the RPMI 1640 medium (MBA) containing 20% fetal calf serum (Flow), 10 mM Hepes (Sigma), 1% of PSN and 1% of glutamine (Gibco). After 1 h of incubation at 4° C. with gentle shaking, the macrophages agglutinate among themselves. The agglutinated macrophages are sedimented for 15 mn at 4° C. The supernatant containing an enrichment in lymphocytes was removed and the pellet enriched in macrophages was diluted to 5.10^6 cells/ml in the medium previously described. The cell suspension was then placed in Petri dishes of 60 mm diameter and placed at 37° C. for 1 h 30. The unattached cells are removed and the washed cell carpet was then detached with a scraper. The cells thus recovered were used directly for the study.
(§4) For this study, the production of HIV-1 virus by infected macrophages in the presence or absence of the drugs 6714 or ddT and 6651 or AZT were monitored either in continuous culture for at least 30 days or after lysis of the macrophages at day +14 and infection of lymphocytes by this lysate.
For each test, 15.10^6 cells were or were not infected with the HIV-1 virus (6000 cpm/10^6 cells). After 1 h of absorption at 37° C., the cells were placed in 6-wells Costar plates and 5.10^-5 M or 10^-5 M of the drugs 6714 and ddT and 10^-5 M, 10^-6 M or 10^-7 M of the drugs 6651 and AZT were added to the culture medium. The medium was changed every 3 or 4 days and the reverse transcriptase activity was determined in the culture supernatant. The drugs were added at each passage to the culture medium at the respective concentrations indicated above.
(§5) 3) Measurement of the reverse transcriptase activity
(§6) The reverse transcriptase activity is assayed starting from 1 ml of culture supernatant concentrated 100 times by ultra-centrifugation for 5 mn at 95.000 rpm (Rotor TL 100^R Beckman).
(§7) The pellet is resuspended in 10 μl of NTE Triton^R ×100 0.1%.
(§8) After 1 h at 37° C., the acid-insoluble products are precipitated by 20% trichloroacetic acid, filtered onto 0.45μ Millipore^R and the B radioactivity is measured with the aid of a Kontron scintillation counter.

HIV-1 virus [3] = experiment: Infection of activated lymphocytes by the lysates of infected macrophages (co-culture, reverse transcriptase activity)
Description: as §1, §2
The lymphocytes were isolated from the peripheral blood of sero-negative donors on a Ficoll^R gradient (MSL, Eurobio). The lymphocytes thus obtained were stimulated with the phytohemaglutinin p(PHA-p) for 3 days before their utilization.
The lymphocytes are cultivated in RPMI 1640 medium, supplemented with 10% of fetal calf serum, 10% of interleukin 2, 2 μg/ml of polybrene, 1% of glutamine, 1% of antibiotics.
as §3, §4
The quantity of cells placed in culture and the conditions of infection are identical with those previously described.
At day 14 after infection, the macrophages were lysed by two successive freezings to -20° C. and thawings at 37° C. The lysate recovered was then utilized as inoculum to infect 3.10^6 activated lymphocytes derived from a sero-negative donor. After 1 h of absorption, the lymphocytes were adjusted to 10^6 cells per ml and the drugs were added at the concentrations corresponding to those of the lysate.
The lymphocytes were subcultured every 3 or 4 days and an assay of the reverse transcriptase was carried out starting from the culture supernatant at each passage.
as §5, §6, §7, §8

Structure (SMILES)	residual virus (% not inhibited) at 100 µM [1] [%]	residual virus (% not inhibited) at 10 µM [1] [%]	residual virus (% not inhibited) at 1 µM [1] [%]	residual virus (% not inhibited) at 0.1 µM [1] [%]	proliferation of the HIV-1 virus in the macrophages (HIV-1 virus [2]; 5.10^-5 M and 10^-5 M)	viral production by activated lymphocytes (HIV-1 virus [3]; 5.10^-5 M)	viral production by activated lymphocytes, compared to untreated lysate (HIV-1 virus [3]; 10^-5 M)	viral production by activated lymphocytes with lysates of infected treated macrophages (general statement) (HIV-1 virus [3]; lysate at day 14)	multiplication of the HIV-1 virus in the macrophages (HIV-1 virus [3]; whatever the concentration tested, 5.10^-6 M or 10^-5 M)	retroviral activity (in words) ([1]; recombinant MoMLV)	proliferation of the HIV-1 virus in the macrophages (HIV-1 virus [2]; 10^-5 M, 10^-6 M and 10^-7 M)	viral production on the lymphocytes with the lysates of treated macrophages (HIV-1 virus [3]; 10^-5 M, 10^-6 M and 10^-7 M (FIG. 4d))	multiplication of the HIV-1 virus at the interior of the macrophage (HIV-1 virus [3]; whatever the concentration tested, 10^-5 M, 10^-6 M and 10^-7 M)
Cc1cn([C@H]2C[C@H](N=[N+]=[N-])[C@@H](COP(=O)(O)OC[C@H]3OC(O)[C@H](O)[C@@H](O)[C@@H]3O)O2)c(=O)[nH]c1=O (stereo partly shown) [compound 6715, 6-glucosyl 5' (3'-azido)-thymidinyl phosphate]	0	0	3										
CCCCCCCCCCCCCCCCOP(=O)(OCC1CCC(n2cc(C)c(=O)[nH]c2=O)O1)OCC1OC(O)C(O)C(O)C1O (stereo not shown) [compound 6650, 6-glucosyl hexadecyl 5'-(3'-deoxy) thymidinyl]		79	78	96									
Cc1cn([C@H]2CC[C@@H](CO)O2)c(=O)[nH]c1=O [ddT, 3'-deoxy-thymidine, reference compound]		78	87	101	block the proliferation of the HIV-1 virus in the macrophages	seems to be lower	comparable to the untreated lysate	make it possible to obtain a vital production by activated lymphocytes	there is multiplication of the HIV-1 virus in the macrophages, but the escape of the virus seems to be blocked				
Cc1cn([C@H]2C[C@H](N=[N+]=[N-])[C@@H](CO)O2)c(=O)[nH]c1=O [AZT, 3'-azido 3'-deoxythymidine, reference compound]	0	0	0	1						active by themselves	block the proliferation of the HIV-1 virus in the macrophages	no viral production is obtained on the lymphocytes	there is no multiplication of the HIV-1 virus at the interior of the macrophage

Source: US5393744A, “Glucosyl phosphotriesters of thymidine” (Institut Pasteur, priority 1988, dated 1995)
